Laboratory results published in patent US9062004B2, “Cannabinoid-2 agonists” (Allergan, Inc., priority 2010, dated 2015).

What was measured:
[1] = molecular target: human CB2 cannabinoid receptor (Homo sapiens (Human), UniProt P34972); assay: Radioligand binding assay, CB2 ([3H]-CP 55,940 competition); conditions: for IC50: plasma membranes of HEK 293 EBNA cells transfected with human CB2, 0.72 nM [3H]-CP 55,940, NA = not active; for CB2 Selectivity: CB2 versus CB1 binding (ratio of CB1 IC50 to CB2 IC50)
Method: (§1) A. Radioligand Binding Assay
(§2) Plasma membranes prepared from HEK 293 EBNA cells transfected with human CB1 or CB2 cannabinoid receptors ([…] protein, receptor concentration; PerkinElmer) were used for the radioligand binding studies. The composition of incubation buffer for CB1 assay was 50 mM Tris base, 2.5 mM EDTA, 5 mM MgCl2 and 0.5 mg/ml fatty acid free BSA and for CB2 assay was 50 mM Tris base, 2.5 mM EGTA, 5 mM MgCl2 and 1 mg/ml fatty acid free BSA; pH was adjusted to 7.4 by adding 1N HCl. Plasma membranes were diluted with incubation buffer to provide a final protein concentration of 2.4 μg (CB1) or 8 μg (CB2) per well in non-binding surface polystyrene 96-well assay plates (Corning). Compound solutions were prepared in silanized glass tubes and dispensed using pipette tips with SUPERSLIK™ surface. Competition studies were performed using a final concentration of 0.72 nM [^3H]-CP 55,940 (100-180 Ci/mmol, specific activity; PerkinElmer) against test compounds. Non-specific binding was determined using 10 uM of unlabeled CP 55,940. Incubations were performed in 96-well assay plates at a final volume of 200 ul for 90 min (CB1) or 60 min (CB2) at room temperature. Binding reactions were terminated by the addition of ice-cold incubation buffer and rapid filtration through a glass fiber filter using a cell harvester (Inotech). This was followed by 8 additional washes. The glass fiber filter (0.26 mm thickness, 1-1.5 um retention; Inotech) was presoaked in cold incubation buffer containing 0.05% polyethylenimine. The filters were oven-dried at 50° C. for 60 min and counting performed using a Beckman Coulter LS 6500 Multi-Purpose Scintillation Counter (Beckman-Coulter). Binding was determined in duplicate for at least 4 separate experiments.

[2] = system: mouse isolated vas deferens; assay: Mouse isolated vas deferens (MVD) bioassay, electrically stimulated contractions; format: cell-based; conditions: vas deferens of male Swiss Webster mice, electrically evoked contractions, NA = not active; for EC50: Mus musculus, read-out: MVD Assay EC50
[3] = molecular target: human CB1 cannabinoid receptor (Homo sapiens (Human), UniProt P21554); assay: Radioligand binding assay, CB1 ([3H]-CP 55,940 competition); conditions: plasma membranes of HEK 293 EBNA cells transfected with human CB1; 0.72 nM [3H]-CP 55,940; NA = not active
Method: as §1, §2

Chain of human CB1 cannabinoid receptor (P21554 whole entry): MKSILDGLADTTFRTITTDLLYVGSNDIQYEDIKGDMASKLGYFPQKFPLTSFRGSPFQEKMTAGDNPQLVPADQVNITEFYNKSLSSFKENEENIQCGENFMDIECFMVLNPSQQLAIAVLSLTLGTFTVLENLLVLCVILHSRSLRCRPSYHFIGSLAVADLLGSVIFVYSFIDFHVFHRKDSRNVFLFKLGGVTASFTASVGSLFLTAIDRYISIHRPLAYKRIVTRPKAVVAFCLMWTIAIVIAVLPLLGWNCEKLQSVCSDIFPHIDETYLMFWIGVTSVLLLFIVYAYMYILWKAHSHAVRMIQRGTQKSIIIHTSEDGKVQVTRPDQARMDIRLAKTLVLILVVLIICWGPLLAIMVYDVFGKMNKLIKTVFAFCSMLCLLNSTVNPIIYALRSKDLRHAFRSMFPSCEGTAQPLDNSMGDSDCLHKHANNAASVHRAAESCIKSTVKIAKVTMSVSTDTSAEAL
Chain of human CB2 cannabinoid receptor (P34972 whole entry): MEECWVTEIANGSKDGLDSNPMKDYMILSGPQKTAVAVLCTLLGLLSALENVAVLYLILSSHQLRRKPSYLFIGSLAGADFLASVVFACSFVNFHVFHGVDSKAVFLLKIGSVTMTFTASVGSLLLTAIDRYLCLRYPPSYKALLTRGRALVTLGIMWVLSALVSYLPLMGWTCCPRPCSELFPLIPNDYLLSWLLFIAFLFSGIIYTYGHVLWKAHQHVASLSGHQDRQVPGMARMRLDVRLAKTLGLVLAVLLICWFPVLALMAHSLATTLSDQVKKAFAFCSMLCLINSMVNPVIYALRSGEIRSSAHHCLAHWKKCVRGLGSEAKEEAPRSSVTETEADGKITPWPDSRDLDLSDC

SMILES	IC50 [1] [µM]	EC50 [2] [µM]	CB2 Selectivity [1]	IC50 [3] [µM]	MVD assay qualitative outcome [2]
CC1(C)CC(n2ncc(O)cc2=O)CC(C)(C)C1 [Compound 1, 5-hydroxy-2-(3,3,5,5-tetramethyl-cyclohexyl)pyridazin-3-one]	1.82	3.7	–	–	–
CC1(C)CC(n2ncc(Cl)c(Cl)c2=O)CC(C)(C)C1 [Compound 2, 4,5-Dichloro-2-(3,3,5,5-tetramethyl-cyclohexyl)pyridazin-3-one]	0.389	> 10	>26	> 10	–
CNc1cnn(C2CC(C)(C)CC(C)(C)C2)c(=O)c1Cl [Compound 3, 4-Chloro-5-methylamino-2-(3,3,5,5-tetramethylcyclohexyl)pyridazin-3-one]	0.355	2.9	>28	> 10	–
CN(C)c1cnn(C2CC(C)(C)CC(C)(C)C2)c(=O)c1Cl [Compound 4, 4-Chloro-5-dimethylamino-2-(3,3,5,5-tetramethylcyclohexyl) pyridazin-3-one]	0.017	0.082	60	1.02	–
CNc1cnn(C2CC(C)(C)CC(C)(C)C2)c(=O)c1 [Compound 6, 5-Methylamino-2-(3,3,5,5-tetramethyl-cyclohexyl)pyridazin-3-one]	2.09	10	>5	> 10	–
CN(C)c1cnn(C2CC(C)(C)CC(C)(C)C2)c(=O)c1 [Compound 7, 5-Dimethylamino-2-(3,3,5,5-tetramethylcyclohexyl)pyridazin-3-one]	0.38	2.5	>26	> 10	–
CCCNc1cnn(C2CC(C)(C)CC(C)(C)C2)c(=O)c1 [Compound 8, 5-Propylamino-2-(3,3,5,5-tetramethyl-cyclohexyl)pyridazin-3-one]	0.068	0.44	>147	> 10	–
CN(C)CCNc1cnn(C2CC(C)(C)CC(C)(C)C2)c(=O)c1Br [Compound 14, 4-Bromo-5-(2-dimethylaminoethylamino)-2-(3,3,5,5-tetramethyl-cyclohexyl)pyridazin-3-one]	0.042	0.82	177	7.41	–
CC1(C)CC(n2ncc(NCCN3CCOCC3)c(Br)c2=O)CC(C)(C)C1 [Compound 15, 4-Bromo-5-(2-morpholin-4-ylethylamino)-2-(3,3,5,5-tetramethyl-cyclohexyl)pyridazin-3-one]	0.0224	0.086	83	1.86	–
CCCNc1cnn(-c2cc(C)cc(C)c2)c(=O)c1Cl [Compound 16, 4-Chloro-2-(3,5-dimethylphenyl)-5-propylaminopyridazin-3-one]	10	> 10	–	> 10	–
Cc1cc(C)cc(-n2ncc(N(C)C)c(Cl)c2=O)c1 [Compound 17, 4-Chloro-5-dimethylamino-2-(3,5-dimethylphenyl)-pyridazin-3-one]	> 10	–	–	–	–
CCCNc1cnn(-c2cc(C(F)(F)F)cc(C(F)(F)F)c2)c(=O)c1Cl [Compound 20, 2-(3,5-Bistrifluoromethylphenyl)-4-chloro-5-propylamino-pyridazin-3-one]	> 10	> 10	–	> 10	–
CN(C)c1cnn(-c2cc(C(F)(F)F)cc(C(F)(F)F)c2)c(=O)c1Cl [Compound 21, 2-(3,5-Bistrifluoromethylphenyl)-4-chloro-5-dimethylaminopyridazin-3-one]	> 10	> 10	–	–	–
O=c1c(Cl)c(NCCN2CCOCC2)cnn1-c1cc(C(F)(F)F)cc(C(F)(F)F)c1 [Compound 22, 2-(3,5-Bistrifluoromethylphenyl)-4-chloro-5-(2-morpholin-4-ylethyl-amino)pyridazin-3-one]	> 10	> 10	–	–	–
CN(C)CCNc1cnn(-c2cc(C(F)(F)F)cc(C(F)(F)F)c2)c(=O)c1Cl [Compound 23, 2-(3,5-Bistrifluoromethylphenyl)-4-chloro-5-(2-dimethylaminoethylamino)pyridazin-3-one]	–	–	–	–	Increase
CCCNc1cnn(C(C)(C)C)c(=O)c1Cl [Compound 24, 2-t-Butyl-4-chloro-5-propylamino-pyridazin-3-one]	> 10	> 10	–	–	–
CCCNc1cnn(-c2cc(Cl)cc(Cl)c2)c(=O)c1Cl [Compound 25, 4-Chloro-2-(3,5-dichlorophenyl)-5-propylaminopyridazin-3-one]	> 10	> 10	–	> 10	–
CC(C)(C)n1ncc(NCCN2CCOCC2)c(Cl)c1=O [Compound 27, 2-t-Butyl-4-chloro-5-(2-morpholin-4-ylethylamino)-pyridazin-3-one]	> 10	> 10	–	–	–
O=c1c(Cl)c(NCCN2CCOCC2)cnn1-c1cc(Cl)cc(Cl)c1 [Compound 28, 4-Chloro-2-(3,5-dichlorophenyl)-5-(2-morpholin-4-ylethylamino)-pyridazin-3-one]	> 10	–	–	–	Increase
CCN(CC)CCNc1cnn(C2CC(C)(C)CC(C)(C)C2)c(=O)c1Cl [Compound 32, 4-Chloro-5-(2-diethylaminoethylamino)-2-(3,3,5,5-tetramethyl-cyclohexyl)pyridazin-3-one]	1.29	10	–	–	–
CN(C)CCn1cc2c(=O)n(C3CC(C)(C)CC(C)(C)C3)ncc2n1 [Compound 39, 2-(2-Dimethylaminoethyl)-5-(3,3,5,5-tetramethylcyclohexyl)pyrazolo[3,4-d]pyridazin-4-one]	2.04	2.9	–	–	–

Further lines, with some results ahead:

IC50 [1] [µM]	EC50 [2] [µM]	CB2 Selectivity [1]	SMILES	IC50 [3] [µM]	MVD assay qualitative outcome [2]
0.0054	0.03	189	CCCNc1cnn(C2CC(C)(C)CC(C)(C)C2)c(=O)c1Cl [Compound 5, 4-Chloro-5-propylamino--2-(3,3,5,5-tetramethylcyclohexyl)pyridazin-3-one]	1.02	–
> 10	> 10	–	CCCNc1cnn(-c2ccccc2)c(=O)c1Cl [Compound 9, 4-Chloro-2-phenyl-5-propylamino-pyridazin-3-one]	–	–
10	> 10	–	CCCNc1cnn(C2CCCCC2)c(=O)c1Cl [Compound 10, 4-Chloro-2-cyclohexyl-5-propylaminopyridazin-3-one]	–	–
0.083	0.32	48	CC1(C)CC(n2ncc(NCCN3CCOCC3)c(Cl)c2=O)CC(C)(C)C1 [Compound 11, 4-Chloro-5-(2-morpholin-4-ylethyl-amino)-2-(3,3,5,5-tetramethyl-cyclohexyl)pyridazin-3-one]	3.98	–
0.204	2.9	>49	CN(C)CCNc1cnn(C2CC(C)(C)CC(C)(C)C2)c(=O)c1Cl [Compound 12, 4-Chloro-5-(2-dimethylaminoethylamino)-2-(3,3,5,5-tetramethyl-cyclohexyl)pyridazin-3-one]	> 10	–
0.0048	0.021	36	CCCNc1cnn(C2CC(C)(C)CC(C)(C)C2)c(=O)c1Br [Compound 13, 4-Bromo-5-propylamino--2-(3,3,5,5-tetramethylcyclohexyl)pyridazin-3-one]	0.174	–
> 10	~10	–	Cc1cc(C)cc(-n2ncc(NCCN3CCOCC3)c(Cl)c2=O)c1 [Compound 18, 4-Chloro-2-(3,5-dimethylphenyl)-5-(2-morpholin-4-ylethylamino)-pyridazin-3-one]	> 10	–
10	> 10	–	CCCNc1cnn(-c2cc(C)ccc2C)c(=O)c1Cl [Compound 26, 4-Chloro-2-(2,5-dimethylphenyl)-5-propylaminopyridazin-3-one]	–	–
> 10	> 10	–	Cc1ccc(C)c(-n2ncc(NCCN3CCOCC3)c(Cl)c2=O)c1 [Compound 29, 4-Chloro-2-(2,5-dimethylphenyl)-5-(2-morpholin-4-ylethylamino)-pyridazin-3-one]	–	–
> 10	> 10	–	CCCNc1cnn(Cc2ccccc2)c(=O)c1Cl [Compound 30, 2-Benzyl-4-chloro-5-propylaminopyridazin-3-one]	–	–
–	> 10	–	CCCNc1cnn(CC(C)(C)C)c(=O)c1Cl [Compound 33, 4-Chloro-2-(2,2-dimethylpropyl)-5-propylaminopyridazin-3-one]	–	–
